Experimental data: patent US7728012B2, “Carboxamide compounds and their use as calpain inhibitors” (Abbott GmbH & Co. KG, priority 2006, dated 2010)

Tests used:
Type in all cases: biochemical
[1] = target: T1, cathepsin B isolated from human liver (Homo sapiens, UniProt P07858); assay: Cathepsin B kinetic fluorescence enzyme inhibition assay; details: selectivity ratio versus calpain I
T1 construct: cathepsin B—isolated from human liver; purchased Calbiochem 219362; host or cells: human liver (tissue isolate)
Summary of the method: (§1)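 Cathepsin B (0.25 nM, human liver) with 100 μM Z-Phe-Arg-AMC; L (1 nM, human liver) with 2 μM Z-Phe-Arg-AMC; S (0.5 nM, recombinant) with 20 μM Z-Val-Val-Arg-AMC. pH 6.0 MES buffer, 2.5 mM L-cysteine, room temperature. Kinetic fluorescence (ex 390/em 460 nm); apparent Ki from IC50 by Cheng-Prusoff.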

[2] = target: T2, cathepsin K activated from recombinant human procathepsin K (Homo sapiens, UniProt P43235); assay: Cathepsin K kinetic fluorescence enzyme inhibition assay; details: selectivity ratio versus calpain I
T2 construct: purchased Calbiochem 342001; host or cells: E. coli
T2 sequence (P43235 115-329): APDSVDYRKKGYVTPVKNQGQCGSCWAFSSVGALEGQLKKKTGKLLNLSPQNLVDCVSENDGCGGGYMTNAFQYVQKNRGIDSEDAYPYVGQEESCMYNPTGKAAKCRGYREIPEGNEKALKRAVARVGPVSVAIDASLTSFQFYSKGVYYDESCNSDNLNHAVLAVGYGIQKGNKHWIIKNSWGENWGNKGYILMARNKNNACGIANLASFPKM

[3] = target: T3, cathepsin L isolated from human liver (Homo sapiens, UniProt P07711); assay: Cathepsin L kinetic fluorescence enzyme inhibition assay; details: selectivity ratio versus calpain I
T3 construct: cathepsin L—isolated from human liver; purchased Calbiochem 219402; host or cells: human liver (tissue isolate)
Summary of the method: as §1

[4] = target: T4, calpain-I isolated from human erythrocytes (Homo sapiens, UniProt P07384); assay: Calpain I kinetic fluorescence enzyme inhibition assay; details: apparent Ki from IC50 by Cheng-Prussoff; average of 2 to 4 dose-effect plots
T4 construct: calpain-I—isolated from human erythrocytes; purchased Calbiochem 208713; host or cells: human erythrocytes (tissue isolate)
T4 sequence (P07384 1-714): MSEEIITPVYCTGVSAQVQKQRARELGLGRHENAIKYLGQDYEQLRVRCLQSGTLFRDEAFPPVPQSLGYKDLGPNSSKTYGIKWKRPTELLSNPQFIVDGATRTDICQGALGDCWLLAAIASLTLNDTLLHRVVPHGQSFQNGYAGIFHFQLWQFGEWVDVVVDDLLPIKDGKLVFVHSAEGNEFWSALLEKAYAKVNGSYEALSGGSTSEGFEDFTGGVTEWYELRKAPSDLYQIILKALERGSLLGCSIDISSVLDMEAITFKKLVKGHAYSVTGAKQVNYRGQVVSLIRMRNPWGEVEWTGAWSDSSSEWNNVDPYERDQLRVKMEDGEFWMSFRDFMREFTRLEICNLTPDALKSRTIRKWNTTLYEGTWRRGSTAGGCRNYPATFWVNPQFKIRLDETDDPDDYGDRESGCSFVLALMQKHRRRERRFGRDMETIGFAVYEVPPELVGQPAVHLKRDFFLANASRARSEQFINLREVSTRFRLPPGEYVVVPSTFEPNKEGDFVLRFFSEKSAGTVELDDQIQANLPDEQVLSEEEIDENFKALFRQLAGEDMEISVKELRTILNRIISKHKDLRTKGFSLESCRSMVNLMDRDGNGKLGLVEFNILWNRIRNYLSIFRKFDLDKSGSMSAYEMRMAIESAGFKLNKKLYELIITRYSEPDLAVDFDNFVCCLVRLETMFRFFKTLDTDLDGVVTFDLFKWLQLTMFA
T4 sequence (P04632 1-268 partner): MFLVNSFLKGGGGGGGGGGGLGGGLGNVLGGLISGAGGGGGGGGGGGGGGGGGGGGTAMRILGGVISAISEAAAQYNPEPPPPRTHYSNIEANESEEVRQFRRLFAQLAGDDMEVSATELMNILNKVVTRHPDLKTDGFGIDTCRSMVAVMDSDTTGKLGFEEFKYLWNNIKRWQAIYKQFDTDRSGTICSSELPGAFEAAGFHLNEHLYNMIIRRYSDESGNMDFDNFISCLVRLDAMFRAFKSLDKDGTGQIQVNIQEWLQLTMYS

[5] = target: T5, recombinant human cathepsin S (Homo sapiens, UniProt P25774); assay: Cathepsin S kinetic fluorescence enzyme inhibition assay; details: selectivity ratio versus calpain I
T5 construct: purchased Calbiochem 219343; host or cells: E. coli
Summary of the method: as §1

T5 sequence (P25774 115-331): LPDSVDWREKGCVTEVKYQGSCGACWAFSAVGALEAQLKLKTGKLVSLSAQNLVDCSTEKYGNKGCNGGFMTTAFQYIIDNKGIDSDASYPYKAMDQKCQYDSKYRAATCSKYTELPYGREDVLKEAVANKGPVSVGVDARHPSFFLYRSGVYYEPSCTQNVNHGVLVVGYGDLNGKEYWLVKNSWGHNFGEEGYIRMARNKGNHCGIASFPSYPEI
T3 sequence (P07711 114-333): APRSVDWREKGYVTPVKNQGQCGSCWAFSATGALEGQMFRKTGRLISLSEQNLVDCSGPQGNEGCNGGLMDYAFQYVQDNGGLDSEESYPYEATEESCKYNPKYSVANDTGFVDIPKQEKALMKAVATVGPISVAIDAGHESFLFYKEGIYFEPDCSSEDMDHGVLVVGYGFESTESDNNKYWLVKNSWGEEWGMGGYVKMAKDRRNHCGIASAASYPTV

Sel cat. B (Ki(cathepsin B)/Ki(calpain) ratio) [1] | Sel cat. K (Ki(cathepsin K)/Ki(calpain) ratio) [2] | Ki [4] [nM] | SMILES | Sel cat. L (Ki(cathepsin L)/Ki(calpain) ratio) [3] | Sel cat. S (Ki(cathepsin S)/Ki(calpain) ratio) [5]
+ (10≦Ki(cathepsin B)/Ki(calpain)<30) | + (10≦Ki(cathepsin K)/Ki(calpain)<30) | ≤ 40 | NC(=O)C(=O)C(Cc1ccccc1)NC(=O)c1cccnc1-n1ccc(-c2cccs2)n1 (stereo not shown) [Example 55, N-(3-Amino-1-benzyl-2,3-dioxopropyl)-2-[3-(2-thienyl)-1H-pyrazol-1-yl]nicotinamide] | ++ (Ki(cathepsin L)/Ki(calpain) ratio of ≧50) | ++ (Ki(cathepsin S)/Ki(calpain) ratio of ≧100)
+ (10≦Ki(cathepsin B)/Ki(calpain)<30) | + (10≦Ki(cathepsin K)/Ki(calpain)<30) | 40 to 100 | NC(=O)C(=O)C(Cc1ccccc1)NC(=O)c1cccnc1-n1ccc(-c2ccc(N3CCCC3)cc2)n1 (stereo not shown) [Example 69, N-(3-Amino-1-benzyl-2,3-dioxopropyl)-2-[3-(4-pyrrolidin-1-ylphenyl)-1H-pyrazol-1-yl]nicotinamide] | ++ (Ki(cathepsin L)/Ki(calpain) ratio of ≧50) | ++ (Ki(cathepsin S)/Ki(calpain) ratio of ≧100)
+ (10≦Ki(cathepsin B)/Ki(calpain)<30) | + (10≦Ki(cathepsin K)/Ki(calpain)<30) | ≤ 40 | NC(=O)C(=O)C(Cc1ccccc1)NC(=O)c1cccnc1-n1ccc(-c2cccc(Cl)c2)n1 (stereo not shown) [Example 70, N-(3-Amino-1-benzyl-2,3-dioxopropyl)-2-[3-(3-chlorophenyl)-1H-pyrazol-1-yl]nicotinamide] | ++ (Ki(cathepsin L)/Ki(calpain) ratio of ≧50) | ++ (Ki(cathepsin S)/Ki(calpain) ratio of ≧100)

Second part, the compound before the results:

SMILES | Sel cat. B (Ki(cathepsin B)/Ki(calpain) ratio) [1] | Sel cat. K (Ki(cathepsin K)/Ki(calpain) ratio) [2] | Ki [4] [nM] | Sel cat. L (Ki(cathepsin L)/Ki(calpain) ratio) [3] | Sel cat. S (Ki(cathepsin S)/Ki(calpain) ratio) [5]
NC(=O)C(=O)C(Cc1ccccc1)NC(=O)c1cccnc1-n1ccc(-c2cccc(N3CCOCC3)c2)n1 (stereo not shown) [Example 58, N-(3-Amino-1-benzyl-2,3-dioxopropyl)-2-[3-(3-morpholin-4-ylphenyl)-1H-pyrazol-1-yl]nicotinamide] | + (10≦Ki(cathepsin B)/Ki(calpain)<30) | + (10≦Ki(cathepsin K)/Ki(calpain)<30) | ≤ 40 | ++ (Ki(cathepsin L)/Ki(calpain) ratio of ≧50) | ++ (Ki(cathepsin S)/Ki(calpain) ratio of ≧100)
NC(=O)C(=O)C(Cc1ccccc1)NC(=O)c1cccnc1-n1ccc(-c2ccc(C(F)(F)F)cc2)n1 (stereo not shown) [Example 60, N-(3-Amino-1-benzyl-2,3-dioxopropyl)-2-{3-[4-(trifluoromethyl)phenyl]-1H-pyrazol-1-yl}nicotinamide] | + (10≦Ki(cathepsin B)/Ki(calpain)<30) | + (10≦Ki(cathepsin K)/Ki(calpain)<30) | 40 to 100 | ++ (Ki(cathepsin L)/Ki(calpain) ratio of ≧50) | + (50≦Ki(cathepsin S)/Ki(calpain)<100)
NC(=O)C(=O)C(Cc1ccccc1)NC(=O)c1cccnc1-n1cc2c(n1)-c1ccccc1CC2 (stereo not shown) [Example 63, N-(3-Amino-1-benzyl-2,3-dioxopropyl)-2-(4,5-dihydro-2H-benzo[g]indazol-2-yl)nicotinamide] | + (10≦Ki(cathepsin B)/Ki(calpain)<30) | + (10≦Ki(cathepsin K)/Ki(calpain)<30) | ≤ 40 | ++ (Ki(cathepsin L)/Ki(calpain) ratio of ≧50) | ++ (Ki(cathepsin S)/Ki(calpain) ratio of ≧100)
NC(=O)C(=O)C(Cc1ccc(Cl)cc1)NC(=O)c1cccnc1-n1ccc(-c2ccc(F)cc2)n1 (stereo not shown) [Example 67, N-[3-Amino-1-(4-chlorobenzyl)-2,3-dioxopropyl]-2-[3-(4-fluorophenyl)-1H-pyrazol-1-yl]nicotinamide] | + (10≦Ki(cathepsin B)/Ki(calpain)<30) | + (10≦Ki(cathepsin K)/Ki(calpain)<30) | 40 to 100 | ++ (Ki(cathepsin L)/Ki(calpain) ratio of ≧50) | ++ (Ki(cathepsin S)/Ki(calpain) ratio of ≧100)
NC(=O)C(=O)C(Cc1ccccc1)NC(=O)c1cccnc1-n1ccc(-c2ccc(F)cc2Cl)n1 (stereo not shown) [Example 71, N-(3-Amino-1-benzyl-2,3-dioxopropyl)-2-[3-(2-chloro-4-fluorophenyl)-1H-pyrazol-1-yl]nicotinamide] | ++ (Ki(cathepsin B)/Ki(calpain) ratio of ≧30) | ++ (Ki(cathepsin K)/Ki(calpain) ratio of ≧30) | 40 to 100 | ++ (Ki(cathepsin L)/Ki(calpain) ratio of ≧50) | ++ (Ki(cathepsin S)/Ki(calpain) ratio of ≧100)
NC(=O)C(=O)C(Cc1ccccc1)NC(=O)c1cccnc1-n1ccc(-c2ccccc2C(F)(F)F)n1 (stereo not shown) [Example 72, N-(3-Amino-1-benzyl-2,3-dioxopropyl)-2-{3-[2-(trifluoromethyl)phenyl]-1H-pyrazol-1-yl}nicotinamide] | + (10≦Ki(cathepsin B)/Ki(calpain)<30) | + (10≦Ki(cathepsin K)/Ki(calpain)<30) | 40 to 100 | + (30≦Ki(cathepsin L)/Ki(calpain)<50) | ++ (Ki(cathepsin S)/Ki(calpain) ratio of ≧100)
NC(=O)C(=O)C(Cc1ccccc1)NC(=O)c1cccnc1-n1ccc(-c2ccccc2F)n1 (stereo not shown) [Example 76, N-(3-Amino-1-benzyl-2,3-dioxopropyl)-2-[3-(2-fluorophenyl)-1H-pyrazol-1-yl]nicotinamide] | ++ (Ki(cathepsin B)/Ki(calpain) ratio of ≧30) | + (10≦Ki(cathepsin K)/Ki(calpain)<30) | ≤ 40 | ++ (Ki(cathepsin L)/Ki(calpain) ratio of ≧50) | ++ (Ki(cathepsin S)/Ki(calpain) ratio of ≧100)
NC(=O)C(=O)C(Cc1ccccc1)NC(=O)c1cccnc1-n1ccc(-c2ccc(Cl)cc2Cl)n1 (stereo not shown) [Example 79, N-(3-Amino-1-benzyl-2,3-dioxopropyl)-2-[3-(2,4-dichlorophenyl)-1H-pyrazol-1-yl]nicotinamide] | ++ (Ki(cathepsin B)/Ki(calpain) ratio of ≧30) | ++ (Ki(cathepsin K)/Ki(calpain) ratio of ≧30) | 40 to 100 | ++ (Ki(cathepsin L)/Ki(calpain) ratio of ≧50) | ++ (Ki(cathepsin S)/Ki(calpain) ratio of ≧100)
